Measured values from US6737383B1, “Herbicidal oxadiazolidines” (priority 1999, dated 2004).

Assays:
[1] = tested on: cocklebur; test: Test B pre/postemergence cocklebur; format: in vivo, Xanthium strumarium
Summary of the method: (§1)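 Herbicidal effect was estimated by eye on a ten-point control scale after plants spent twelve to sixteen days in a greenhouse following soil or foliar treatment. Foliar sprays targeted plants at one to four leaves; all doses were formulated in a non-phytotoxic solvent with surfactant.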

[2] = tested on: crabgrass; test: Test B pre/postemergence crabgrass; format: in vivo, Digitaria sanguinalis
Summary of the method: as §1

[3] = tested on: wheat; test: Test B pre/postemergence wheat; format: in vivo, Triticum aestivum
Summary of the method: as §1

[4] = tested on: wild oat; test: Test B pre/postemergence wild oat; format: in vivo, Avena fatua
Summary of the method: as §1

[5] = tested on: goosegrass; test: Test D goosegrass; format: in vivo, Eleusine indica; settings: Preemergence, 0 to 100 scale
Source text: Seeds, tubers, or plant parts of Alexandergrass (Brachiaria plantaginea), bermuda-grass (Cynodon dactylon), common pursiane (Portulaca oleracea), common ragweed (Ambrosia elatior), common groundsel (Senecio vulgaris), dallisgrass (Paspalum dilatatum), goosegrass (Eleusine indica), guineagrass (Panicum maximum), itchgrass (Rottboellia exaltata), Johnson grass (Sorghum halepense), large crabgrass (Digitaria sanguinalis), pitted morningglory (Ipomoea lacunosa), purple nutsedge (Cyperus rotundus), sandbur (Cenchrus echinatus), sourgrass (Trichachne insularis), Spanishneedles (Bidens bipinnata), surinam grass (Brachiaria decumbens) and tall mallow (Malva sylvestris) were planted into greenhouse pots of flats containing greenhouse planting medium. Plant species were grown in separate pots or individual compartments. Preemergence applications were made within one day of planting the seed or plant part.
Test chemicals were formulated in a non-phytotoxic solvent mixture which included a surfactant and applied preemergence to the surface of the pot containing seeds in a sandy loam soil. Untreated control pots and treated pots were placed in the greenhouse for growth and visually evaluated for injury 14 to 21 days after herbicide application. Plant response ratings, summarized in Table C, are based on a 0 to 100 scale where 0 is no injury and 100 is complete control. A dash (−) response means no test result.

[6] = tested on: sandbur; test: Test D sandbur; format: in vivo, Cenchrus echinatus; settings: Preemergence, 0 to 100 scale
Summary of the method: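 Values are visual plant-response ratings (0 no injury, 100 complete control) recorded 14 to 21 days after herbicide treatment, using a non-phytotoxic solvent mixture containing surfactant. Preemergence applications went to the surface of pots holding freshly sown seed in sandy loam.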

[7] = tested on: winter wheat; test: Test E winter wheat; format: in vivo, Triticum aestivum; settings: Postemergence; for Plant response rating, Wheat (winter): 0 to 100 scale, 0 is no effect, 100 is complete control
Summary of the method: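 For postemergence, application to 1- to 4-leaf plants growing in a 60:40 sandy loam–potting mix substrate. Formulation: non-phytotoxic solvent mixture plus surfactant. Untreated controls served as the reference for the visual rating after ~21–28 days.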

[8] = tested on: dallisgrass; test: Test D dallisgrass; format: in vivo, Paspalum dilatatum; settings: Postemergence, 0 to 100 scale
[9] = tested on: purple nutsedge; test: Test D purple nutsedge; format: in vivo, Cyperus rotundus; settings: Postemergence, 0 to 100 scale
[10] = tested on: blackgrass; test: Test E blackgrass; format: in vivo, Alopecurus myosuroides; settings: Preemergence
[11] = tested on: green foxtail; test: Test E green foxtail; format: in vivo, Setaria viridis; settings: Preemergence
[12] = tested on: Italian ryegrass; test: Test E Italian ryegrass; format: in vivo, Lolium multiflorum; settings: Preemergence
[13] = tested on: winter wheat; test: Test E winter wheat; format: in vivo, Triticum aestivum; settings: Preemergence
[14] = tested on: wild oat; test: Test E wild oat; format: in vivo, Avena fatua; settings: Preemergence
[15] = tested on: winter barley; test: Test E winter barley; format: in vivo, Hordeum vulgare; settings: Preemergence
[16] = Postemergence, Rate 62 g/ha, scale 0 to 10, 0 is no effect, 10 is complete control
[17] = Postemergence, Rate 250 g/ha, scale 0 to 10, 0 no effect, 10 complete control
[18] = Preemergence, Rate 31 g/ha, visual rating, scale 0 to 10 (0 no effect, 10 complete control)
[19] = Preemergence, Rate 125 g/ha, scale 0 to 10 (0 no effect, 10 complete control)
[20] = Preemergence, Rate 250 g/ha, scale of 0 to 10 where 0 is no effect and 10 is complete control
[21] = Rate 31 g/ha, Postemergence, scale 0 to 10
[22] = Rate 125 g/ha, Postemergence, scale 0 to 10, 0 no effect, 10 complete control
[23] = Preemergence, Rate 62 g/ha, scale 0 to 10, 0 is no effect, 10 is complete control
[24] = Rate 32 g/ha, 0 no injury, 100 complete control
[25] = Rate 64 g/ha, 0 no injury, 100 complete control
[26] = Rate 125 g/ha, 0 no injury, 100 complete control
[27] = Preemergence, Rate 62 g/ha, scale of 0 to 10 where 0 is no effect and 10 is complete control
[28] = Preemergence, Rate 500 g/ha, scale of 0 to 10 where 0 is no effect and 10 is complete control
[29] = Rate 62 g/ha, Postemergence, scale of 0 to 10 where 0 is no effect and 10 is complete control
[30] = Rate 125 g/ha, Preemergence, scale of 0 to 10 where 0 is no effect and 10 is complete control
[31] = Rate 500 g/ha, Postemergence, scale 0 to 10, 0 no effect, 10 complete control
[32] = Rate 16 g/ha, 0 no injury, 100 complete control
[33] = Rate 125 g/ha, 0 to 100 scale (0 no effect, 100 complete control)
[34] = Rate 500 g/ha, 0 to 100 scale where 0 is no effect and 100 is complete control
[35] = Postemergence, Rate 125 g/ha, scale 0 to 10, 0 is no effect, 10 is complete control
[36] = Postemergence, Rate 250 g/ha, scale 0 to 10, 0 is no effect, 10 is complete control
[37] = Preemergence, Rate 62 g/ha, scale 0 to 10 (0 no effect, 10 complete control)

Cc1cccc(C)c1-n1c(=O)on(C(=O)N(c2ccc(F)cc2F)C(C)C)c1=O [Compound 28]
0: Cocklebur plant response rating [1, 16] | Cocklebur plant response rating [1, 18] | Plant response rating, Cocklebur [1, 19] | Plant response rating, Cocklebur [1, 20] | Cocklebur plant response rating [1, 21] | Cocklebur plant response rating [1, 22] | Wheat plant response rating [3, 16] | Wheat plant response rating [3, 17] | Wheat plant response rating [3, 18] | Plant response rating, Wheat [3, 23] | Plant response rating, Wheat [3, 19] | Plant response rating, Wheat [3, 20] | Wheat plant response rating [3, 22] | Wild oats plant response rating [4, 16] | Wild oats plant response rating [4, 17] | Wild oats plant response rating [4, 18] | Plant response rating, Wild oats [4, 19] | Wild oats plant response rating [4, 22] | Plant response rating, Goosegrass [5, 24] | Plant response rating, Sandbur [6, 24] | Sandbur plant response rating [6, 25] | Sandbur plant response rating [6, 26] | Plant response rating, Sandbur ([6]; Rate 250 g/ha)
100: Plant response rating, Goosegrass ([5]; Rate 250 g/ha)
7: Plant response rating, Crabgrass [2, 19]
3: Cocklebur plant response rating [1, 17] | Crabgrass plant response rating [2, 16] | Plant response rating, Crabgrass [2, 23] | Plant response rating, Wild oats [4, 20]
6: Crabgrass plant response rating [2, 22]
2: Crabgrass plant response rating [2, 18]
1: Crabgrass plant response rating [2, 21]
85: Plant response rating, Goosegrass [5, 25]
98: Plant response rating, Goosegrass [5, 26]
9: Crabgrass plant response rating [2, 17] | Plant response rating, Crabgrass [2, 20]

CC(C)N(C(=O)n1oc(=O)n(C2CC2)c1=O)c1ccccc1 [Compound 243]
30: Plant response rating, Barley (winter) [15, 33]
2: Cocklebur plant response rating ([1]; Rate 125 g/ha, Postemergence, scale 0 to 10) | Wheat plant response rating [3, 29]
7: Crabgrass plant response rating [2, 27]
6: Wild oats plant response rating [4, 30]
50: Plant response rating, Dallisgrass [8, 24] | Plant response rating, Wheat (winter) [13, 33]
80: Plant response rating, Wheat (winter) ([7]; Rate 500 g/ha)
90: Plant response rating, Wild oat [14, 34]
4: Plant response rating (0 to 10; 0 is no effect, 10 is complete control), Cocklebur ([1]; Rate 250 g/ha, Postemergence) | Wild oats plant response rating [4, 31]
75: Wheat (winter) plant response rating ([7]; Rate 250 g/ha, 0 to 100 scale where 0 is no effect and 100 is complete control) | Plant response rating, Green foxtail [11, 33] | Plant response rating, Wheat (winter) [13, 34]
65: Plant response rating, Blackgrass [10, 33]
10: Plant response rating, Crabgrass [2, 28] | Purple nutsedge plant response rating [9, 26]
9: Crabgrass plant response rating [2, 20] | Plant response rating (0 to 10; 0 is no effect, 10 is complete control), Crabgrass ([2]; Rate 250 g/ha, Postemergence) | Crabgrass plant response rating [2, 31] | Plant response rating, Wheat [3, 28] | Wild oats plant response rating [4, 20] | Plant response rating, Wild oats [4, 28]
100: Plant response rating, Dallisgrass [8, 26] | Plant response rating, Dallisgrass ([8]; Rate 250 g/ha) | Plant response rating, Purple nutsedge ([9]; Rate 250 g/ha) | Plant response rating, Blackgrass [10, 34] | Green foxtail plant response rating (0 to 100 scale) ([11]; Rate 250 g/ha) | Plant response rating, Green foxtail [11, 34] | Plant response rating, I. Ryegrass [12, 34]
0: Cocklebur plant response rating [1, 27] | Cocklebur plant response rating [1, 20] | Cocklebur plant response rating [1, 29] | Cocklebur plant response rating [1, 30] | Cocklebur plant response rating [1, 31] | Wild oats plant response rating [4, 29] | Plant response rating, Dallisgrass [8, 32] | Plant response rating, Purple nutsedge [9, 32] | Plant response rating, Purple nutsedge [9, 24] | Purple nutsedge plant response rating [9, 25]
85: Blackgrass plant response rating (0 to 100 scale) ([10]; Rate 250 g/ha) | I. Ryegrass plant response rating (0 to 100 scale) ([12]; Rate 250 g/ha)
70: Plant response rating, Wheat (winter) ([7]; Rate 125 g/ha) | Plant response rating, Dallisgrass [8, 25] | Plant response rating, I. Ryegrass [12, 33] | Wheat (winter) plant response rating (0 to 100 scale) ([13]; Rate 250 g/ha) | Plant response rating, Barley (winter) [15, 34]
5: Plant response rating, Cocklebur [1, 28] | Wheat plant response rating [3, 27]
55: Wild oat plant response rating (0 to 100 scale) ([14]; Rate 250 g/ha)
8: Crabgrass plant response rating [2, 30] | Wheat plant response rating [3, 20] | Wheat plant response rating [3, 30] | Wheat plant response rating [3, 31]
3: Crabgrass plant response rating [2, 29] | Wild oats plant response rating [4, 27]
60: Plant response rating, Wild oat [14, 33] | Barley (winter) plant response rating (0 to 100 scale) ([15]; Rate 250 g/ha)

CC(C)N(C(=O)n1oc(=O)n(C2(C)CC2)c1=O)c1ccccc1 [Compound 360]
7: Wheat plant response rating [3, 20]
10: Crabgrass plant response rating (0 to 10 scale) ([2]; Preemergence, Rate 125 g/ha) | Crabgrass plant response rating [2, 20] | Crabgrass plant response rating [2, 28] | Wild oats plant response rating (0 to 10 scale) ([4]; Preemergence, Rate 125 g/ha) | Wild oats plant response rating [4, 20] | Wild oats plant response rating [4, 28] | Purple nutsedge plant response rating [9, 26]
9: Plant response rating, Crabgrass [2, 37]
6: Wheat plant response rating (0 to 10 scale) ([3]; Preemergence, Rate 125 g/ha) | Plant response rating, Wheat [3, 31]
20: Plant response rating, Purple nutsedge ([9]; Rate 250 g/ha)
0: Plant response rating, Cocklebur [1, 35] | Plant response rating, Cocklebur [1, 36] | Plant response rating, Cocklebur [1, 37] | Cocklebur plant response rating (0 to 10 scale) ([1]; Preemergence, Rate 125 g/ha) | Cocklebur plant response rating [1, 28] | Cocklebur plant response rating [1, 29] | Plant response rating, Cocklebur [1, 31] | Plant response rating, Dallisgrass [8, 32] | Plant response rating, Purple nutsedge [9, 32] | Plant response rating, Purple nutsedge [9, 24] | Purple nutsedge plant response rating [9, 25]
4: Plant response rating, Wheat [3, 35] | Plant response rating, Wheat [3, 36]
5: Plant response rating, Crabgrass [2, 36] | Plant response rating, Crabgrass [2, 31] | Plant response rating, Wild oats [4, 31]
2: Plant response rating, Crabgrass [2, 35] | Crabgrass plant response rating [2, 29]
3: Plant response rating, Wheat [3, 37] | Wheat plant response rating [3, 29] | Plant response rating, Wild oats [4, 35] | Plant response rating, Wild oats [4, 36] | Plant response rating, Wild oats [4, 37] | Wild oats plant response rating [4, 29]
40: Plant response rating, Dallisgrass [8, 24]
100: Plant response rating, Dallisgrass [8, 25] | Plant response rating, Dallisgrass [8, 26] | Plant response rating, Dallisgrass ([8]; Rate 250 g/ha)
8: Wheat plant response rating [3, 28]
